Measured values reported in patent US7098232B1, “Treatment and prevention of gastrointestinal disease using antagonists of partial agonists of 5HT1a receptors” (Athpharma Limited, priority 1999, dated 2006).

Key:
[1] = system: gastric emptying; conditions: intracerebroventricular injection, animal studies; cited from earlier work
[2] = system: patients suffering from non-ulcerative dyspepsia; experiment: Clinical study of pindolol in non-ulcerative dyspepsia (GSRS scores); format: in vivo, humans; conditions: 2.5 mg three times daily
Procedure: The invention is intended for the treatment of mammals, including humans.
Eleven patients suffering from non-ulcerative dyspepsia were recruited to a clinical study and gave informed consent. All were treated with pindolol 2.5 mg three times daily. […] A further patient improved in the second week. Their responses were quantified using a standard rating scale (GSRS scores).

[3] = target: T1, 5HT1a receptor (Homo sapiens, UniProt P08908); experiment: Buspirone challenge, prolactin release; format: in vivo; conditions: buspirone 30 mg orally; for Prolactin AUC (mean±SD): blood 0-180 min
T1 construct: Buspirone (30mg) or, matching placebo was administered orally; from tissue; host or cells: living human subjects (central receptors)
T1 sequence (P08908 1-422): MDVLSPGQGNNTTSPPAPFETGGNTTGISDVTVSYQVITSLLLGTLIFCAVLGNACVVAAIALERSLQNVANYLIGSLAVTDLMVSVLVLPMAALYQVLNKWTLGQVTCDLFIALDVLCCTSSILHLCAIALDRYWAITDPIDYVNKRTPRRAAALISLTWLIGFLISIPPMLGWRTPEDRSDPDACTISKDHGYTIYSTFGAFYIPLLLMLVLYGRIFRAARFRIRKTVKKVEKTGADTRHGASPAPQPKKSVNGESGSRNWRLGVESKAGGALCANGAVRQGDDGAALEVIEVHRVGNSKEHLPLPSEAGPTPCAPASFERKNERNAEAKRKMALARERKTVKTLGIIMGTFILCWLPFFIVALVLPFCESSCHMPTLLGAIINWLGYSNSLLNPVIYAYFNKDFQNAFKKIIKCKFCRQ
Text: Studies indicate that a central 5HT1a receptor hypersensitivity may be involved in the pathophysiology of NUD (13,14). The release of prolactin from the anterior pituitary is under dopamine inhibition and under 5HT stimulation, probably at the level of the hypothalamus (15).
A total of 109 subjects, 50 NUD patients (39 female/11 male) and 59 healthy comparison subjects ([…]) gave fully informed consent to take part in the study, which had Ethics Committee approval. […] Buspirone (30mg) or, matching placebo was administered orally at 0900 h (Time 0). Blood was taken at 0, 30, 60, 90, 120 and 180 min.

Which “Effect on gastric emptying” value [1] does the source give for `CCNC(C)Cc1cccc(C(F)(F)F)c1` (stereo not shown) [fenfluramine] here?
Its value is “inhibits gastric emptying”.

What does the source list for `CC(C)NCC(O)COc1cccc2[nH]ccc12` (racemic) [pindolol]?
Mean GSRS Score ([2]; Week 0 (baseline), average of 11 patients): 9; Mean GSRS Score ([2]; Week 1, average of 11 patients): 4.2; Mean GSRS Score ([2]; Week 2, average of 11 patients): 3.5; Mean GSRS Score ([2]; Week 3, average of 11 patients): 2.9; Reduction in average symptom severity ([2]; in three weeks): approximately 68%; Patients with significant improvement in symptoms ([2]; within 1 week of commencing treatment): Seven of the 11

With `O=C1CC2(CCCC2)CC(=O)N1CCCCN1CCN(c2ncccn2)CC1` [Buspirone] as the molecule, how does the “Prolactin AUC (mean±SD)” value ([3]; NUD patients) read?
Its value is 46±35.

What about the “Prolactin levels after challenge” value ([3]; all subjects) of the same molecule?
The value was “rose in all subjects”.

And the “Prolactin AUC (mean±SD)” value ([3]; healthy subjects)?
Its value is 24±35.
